Measured values published in patent US10010547B2 (CASCADIAN THERAPEUTICS, INC., priority 2014, dated 2018).
Counter-ions that a name gives are not always drawn. Like-named read-outs stand apart in the source and are kept apart here.

Assays:
MIA PaCa-2 cells = experiment: Gemcitabine Combination Cell Assay (Cell Titer Glo); assay type: cell-based; details: for IC50: Homo sapiens; for 10xLS: approximate concentration of Chk1 inhibitor that results in a 10-fold reduction in the IC50 of gemcitabine alone; for 2xLS: approximate concentration of Chk1 inhibitor that results in a two-fold reduction in the IC50 of gemcitabine alone
Outline: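 MIA PaCa-2 cells were treated 72 h with half-log dilutions of Chk1 inhibitor (top 3000 nM) and gemcitabine (top 100 nM), alone and in full matrix; viability by CellTiter-Glo luminescence. IC50s from four-parameter fit; Chk1 inhibitor concentrations giving two- and ten-fold lowering of gemcitabine IC50 were estimated.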

Chk-1 kinase = Chk-1 kinase (Homo sapiens (Human), UniProt O14757); experiment: Chk-1 Kinase Inhibiting Activity (33P-ATP filter assay, CHKtide substrate); assay type: biochemical; details: against Chk-1 kinase; read-out: IC50
Chain of Chk-1 kinase (O14757 whole entry): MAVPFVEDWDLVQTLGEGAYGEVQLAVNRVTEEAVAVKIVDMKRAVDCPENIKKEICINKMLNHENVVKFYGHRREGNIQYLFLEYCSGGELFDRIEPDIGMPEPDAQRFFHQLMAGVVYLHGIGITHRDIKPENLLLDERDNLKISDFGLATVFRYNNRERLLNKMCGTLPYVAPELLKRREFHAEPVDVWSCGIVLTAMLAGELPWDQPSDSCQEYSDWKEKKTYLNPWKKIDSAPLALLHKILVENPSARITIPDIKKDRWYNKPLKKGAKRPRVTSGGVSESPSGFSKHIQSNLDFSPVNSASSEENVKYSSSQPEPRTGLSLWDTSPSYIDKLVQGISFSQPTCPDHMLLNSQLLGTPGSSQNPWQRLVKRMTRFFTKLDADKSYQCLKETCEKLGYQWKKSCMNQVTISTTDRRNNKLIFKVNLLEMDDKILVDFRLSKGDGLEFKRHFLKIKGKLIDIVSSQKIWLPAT
Outline: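 Full-length N-terminal GST-tagged human Chk-1 from insect cells, 0.5 nM final, with 20 μM peptide substrate and 33P-ATP in HEPES pH 7.5 buffer with 1% DMSO. Reaction ran 120 minutes at room temperature; incorporated radioactivity captured on P81 filters and counted for IC50.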

[1] = Chk1 inhibitor alone, MIA PaCa-2 cells, 72 h, read-out: Chk1 IC50

| Structure (SMILES) | IC50 (MIA PaCa-2 cells; MIA PaCa-2, 72 h, read-out: Chk1 IC50 (nM)) [nM] | 10xLS (MIA PaCa-2 cells; MIA PaCa-2 cells, 72 h) [nM] | 2xLS (MIA PaCa-2 cells; MIA PaCa-2 cells, 72 h) [nM] | IC50 (Chk-1 kinase) [nM] | IC50 (MIA PaCa-2 cells; [1]) [nM] |
| --- | --- | --- | --- | --- | --- |
| CCN1CC[C@@H](OCc2ccc(-c3cc(Nc4cnc(C#N)cn4)n[nH]3)c(OC)c2)C1 [Example 140, 5-[[5-[4-[[(3R)-1-ethylpyrrolidin-3-yl]oxymethyl]-2-methoxy-phenyl]-1H-pyrazol-3-yl]amino]pyrazine-2-carbonitrile hydrochloride] | 618 | <300 | <10 | 0.021 | – |
| COc1cc(OC[C@H]2CCCN2C(C)C)ccc1-c1cc(Nc2cnc(C#N)cn2)n[nH]1 [Example 127, 5-[[5-[4-[[(2R)-1-isopropylpyrrolidin-2-yl]methoxy]-2-methoxy-phenyl]-1H-pyrazol-3-yl]amino]pyrazine-2-carbonitrile] | – | <100 | <3 | 0.044 | 169 |
| CN1CCC(c2ccc(-c3cc(Nc4cnc(C#N)cn4)n[nH]3)cc2)CC1 [Example 27, 5-[[5-[4-(1-methyl-4-piperidyl)phenyl]-1H-pyrazol-3-yl]amino]pyrazine-2-carbonitrile] | – | 3000 | 300 | 3.6 | 5750 |
| COc1cc(NCc2ccccc2)ccc1-c1cc(Nc2cnc(C#N)cn2)n[nH]1 [Example 2, 5-[5-(4-benzylamino-2-methoxy-phenyl)-1H-pyrazol-3-ylamino]-pyrazine-2-carbonitrile] | – | 1000 | 100 | 2.7 | 1410 |
| COc1cc(OC2CCN(C(C)C)CC2)ccc1-c1cc(Nc2cnc(C#N)cn2)n[nH]1 [Example 135, 5-[[5-[4-[(1-isopropyl-4-piperidyl)oxy]-2-methoxy-phenyl]-1H-pyrazol-3-yl]amino]pyrazine-2-carbonitrile] | – | 100 | <3 | 0.054 | 334 |
| COc1cc(CO[C@H]2CCN(C(C)C)C2)ccc1-c1cc(Nc2cnc(C#N)cn2)n[nH]1 [Example 139, 5-[[5-[4-[[(3S)-1-isopropylpyrrolidin-3-yl]oxymethyl]-2-methoxy-phenyl]-1H-pyrazol-3-yl]amino]pyrazine-2-carbonitrile] | – | 300 | 10 | 0.027 | 743 |
| COc1cc(CN[C@H]2CCOC2)ccc1-c1cc(Nc2cnc(C#N)cn2)n[nH]1 [Example 132, 5-[[5-[2-methoxy-4-[[[(3S)-tetrahydrofuran-3-yl]amino]methyl]phenyl]-1H-pyrazol-3-yl]amino]pyrazine-2-carbonitrile] | – | <300 | 3 | 0.11 | 411 |
| COc1cc(CN(C)C(C)C)ccc1-c1cc(Nc2cnc(C#N)cn2)n[nH]1 [Example 100, 5-[[5-[4-[[isopropyl(methyl)amino]methyl]-2-methoxy-phenyl]-1H-pyrazol-3-yl]amino]pyrazine-2-carbonitrile] | – | <100 | 3 | 0.053 | 247 |
| COc1cc(C2CCNCC2)ccc1-c1cc(Nc2cnc(Cl)cn2)n[nH]1 [Example 43, 5-chloro-N-[5-[2-methoxy-4-(4-piperidyl)phenyl]-1H-pyrazol-3-yl]pyrazin-2-amine] | – | 1000 | 100 | 0.73 | 1330 |
| COc1cc(C2CCNCC2)ccc1-c1cc(Nc2ccc(C#N)nc2)n[nH]1 [Example 52, 5-[[5-[2-methoxy-4-(4-piperidyl)phenyl]-1H-pyrazol-3-yl]amino]pyridine-2-carbonitrile] | – | 300 | 30 | 0.46 | 953 |
| COc1cc(C2CCN(C)CC2)ccc1-c1cc(Nc2cnc(Cl)cn2)n[nH]1 [Example 44, 5-chloro-N-[5-[2-methoxy-4-(1-methyl-4-piperidyl)phenyl]-1H-pyrazol-3-yl]pyrazin-2-amine] | – | 1000 | 100 | 0.69 | 1260 |
| COc1cc(CN(C)C2CCOC2)ccc1-c1cc(Nc2cnc(C#N)cn2)n[nH]1 (stereo not shown) [Example 73, 5-[[5-[2-methoxy-4-[[methyl(tetra hydrofuran-3-yl)amino]methyl]phenyl]-1H-pyrazol-3-yl]amino]pyrazine-2-carbonitrile] | – | 300 | 10 | 0.28 | 354 |
| COc1cc(C2CCNCC2)ccc1-c1cc(Nc2cnc(C#N)cn2)n[nH]1 [Example 20, 5-[[5-[2-methoxy-4-(4-piperidyl)phenyl]-1H-pyrazol-3-yl]amino]pyrazine-2-carbonitrile] | – | 100 | ~5 | 0.29 | 1110 |
| COc1cc(O[C@@H]2CCN(C)C2)ccc1-c1cc(Nc2cnc(C#N)cn2)n[nH]1 [Example 78, 5-[[5-[2-methoxy-4-[(3R)-1-methylpyrrolidin-3-yl]oxy-phenyl]-1H-pyrazol-3-yl]amino]pyrazine-2-carbonitrile] | – | 100 | 10 | 0.69 | 136 |
| COc1cc(C2CCN(C)CC2)ccc1-c1cc(Nc2cnc(C)cn2)n[nH]1 [Example 26, N-[5-[2-methoxy-4-(1-methyl-4-piperidyl)phenyl]-1H-pyrazol-3-yl]-5-methyl-pyrazin-2-amine] | – | >3000 | 1000 | 10 | 5580 |
| COc1cc(CNc2ccccn2)ccc1-c1cc(Nc2cnc(C#N)cn2)n[nH]1 [Example 31, 5-[[5-[2-methoxy-4-[(2-pyridylamino)methyl]phenyl]-1H-pyrazol-3-yl]amino]pyrazine-2-carbonitrile] | – | 100 | 3 | 0.37 | 838 |
| N#Cc1cnc(Nc2cc(-c3ccc(C4CCNCC4)cc3)[nH]n2)cn1 [Example 56, 5-[[5-[4-(4-piperidyl)phenyl]-1H-pyrazol-3-yl]amino]pyrazine-2-carbonitrile] | – | >3000 | 1000 | 183 | > 3000 |
| COCCN1CCC(c2ccc(-c3cc(Nc4cnc(C#N)cn4)n[nH]3)c(OC)c2)CC1 [Example 89, 5-[[5-[2-methoxy-4-[1-(2-methoxyethyl)-4-piperidyl]phenyl]-1H-pyrazol-3-yl]amino]pyrazine-2-carbonitrile] | – | 100 | <3 | 0.051 | 193 |
| COc1cc(CNC(C)C)ccc1-c1cc(Nc2cnc(C#N)cn2)n[nH]1 [Example 59, 5-[[5-[4-[(isopropylamino)methyl]-2-methoxy-phenyl]-1H-pyrazol-3-yl]amino]pyrazine-2-carbonitrile] | – | 100 | 3 | 0.071 | 263 |
| CCN1CCC[C@H]1COc1ccc(-c2cc(Nc3cnc(C#N)cn3)n[nH]2)c(OC)c1 [Example 128, 5-[[5-[4-[[(2S)-1-ethylpyrrolidin-2-yl]methoxy]-2-methoxy-phenyl]-1H-pyrazol-3-yl]amino]pyrazine-2-carbonitrile] | – | <100 | <3 | 0.023 | 158 |
| COc1cc(N2CCN(C)[C@H](C)C2)ccc1-c1cc(Nc2cnc(C#N)cn2)n[nH]1 [Example 92, 5-[[5-[4-[(3R)-3,4-dimethylpiperazin-1-yl]-2-methoxy-phenyl]-1H-pyrazol-3-yl]amino]pyrazine-2-carbonitrile] | – | 30 | <3 | 0.016 | 132 |
| CCN1CCN(c2cc(F)c(-c3cc(Nc4cnc(C#N)cn4)n[nH]3)c(OC)c2)CC1 [Example 136, 5-[[5-[4-(4-ethylpiperazin-1-yl)-2-fluoro-6-methoxy-phenyl]-1H-pyrazol-3-yl]amino]pyrazine-2-carbonitrile] | – | 100 | 3 | 0.053 | 228 |
